In patent publication US12162881B2, “Forms and compositions of inhibitors of JAK2” (Ajax Therapeutics, Inc., priority 2021, dated 2024):
Converted amounts (≈) assume the structure as drawn. Like-named read-outs stand apart in the source and are kept apart here.

What was measured:
Format in all cases: physicochemical
[1] = Variable relative humidity XRPD (VRH-XRPD)
Description: XRPD patterns were collected with a PANalytical X'Pert PRO MPD diffractometer using an incident beam of Cu Kα radiation produced using a long, fine-focus source and a nickel filter. The diffractometer was configured using the symmetric Bragg-Brentano geometry. Data were collected and analyzed using Data Collector software v. 5.5. Prior to the analysis, a silicon specimen (NIST SRM 640f) was analyzed to verify the observed position of the Si 111 peak is consistent with the NIST-certified position. A specimen of the sample was packed in a nickel-coated copper well. Antiscatter slits (SS) were used to minimize the background generated by air. Soller slits for the incident and diffracted beams were used to minimize broadening from axial divergence. Diffraction patterns were collected using a scanning position-sensitive detector (X'Celerator) located 240 mm from the sample and Data Collector software v. 5.5.
An Anton Paar temperature-humidity chamber (THC) was used while collecting in-situ XRPD patterns as a function of humidity. The temperature of the specimen was changed with a Peltier thermoelectric device located directly under the specimen holder and monitored with a platinum-100 resistance sensor located in the specimen holder. The thermoelectric device was powered and controlled by an Anton Paar TCU 50 interfaced with Data Collector. The humidity was generated with an RH-200 manufactured by VTI Inc. and carried by a flow of nitrogen gas. The humidity was monitored by a HygroClip sensor manufactured by Rotronic located next to the specimen inside the THC.
VRH-XRPD analysis was conducted to help determine water activity boundary for the solid-state conversion between hydrated Form A and anhydrous Form B. This method was utilized due the observed high tendency of Compound 1 to form solvates, which precluded the use of solvent-mediated approach.
Overall, two VRH-XRPD experiments were conducted to qualitatively evaluate RH conditions leading to predominance of Form A over Form B and vice versa. The kinetic component was not assessed.
The first VRH-XRPD experiment was conducted with a goal of observing dehydration of hydrated Form A. An initial XRPD scan was, therefore, acquired on Form A equilibrated in-situ at ambient RH for 45 minutes, which at the time of the analysis was ˜30%. The XRPD pattern from this scan was consistent with Form A (FIG. 39, top).
XRPD patterns were collected throughout the course of the experiment, each with a 10 minute scan.
XRPD patterns were collected throughout the course of the experiment, each with a 10 minute scan. The XRPD patterns remained Form B until the RH reached approximately 60% RH, where Form A became the primary phase with some Form B remaining (FIG. 41, top two spectra). Further decrease of Form B was observed through the remainder of the 60% RH hold at which point the experiment ended (FIG. 41, bottom two spectra). Complete conversion to Form A from Form B was not observed under these conditions.

[2] = Dynamic vapor sorption (DVS) hygroscopicity; settings: for Hysteresis: in % (unit assumed)
Description: Automated vapor sorption (VS) data were collected on a Surface Measurement System DVS Intrinsic instrument. Samples were not dried prior to analysis. Sorption and desorption data were collected over a range from 5% to 95% RH at 10% RH increments under a nitrogen purge. The equilibrium criterion used for analysis was less than 0.0100% weight change in 5 minutes with a maximum equilibration time of 3 hours. Data were not corrected for the initial moisture content of the samples.

[3] = Kinetic solubility of Compound 1 Lot II, visually estimated at ambient temperature; settings: thermodynamic from solid
Description: Kinetic solubility of Compound 1 Lot II was visually estimated at ambient temperature (Table 22). Aliquots of various solvents were added to weighed samples of Compound 1 Lot II with agitation at ambient temperature until complete dissolution was achieved, as judged by visual observation. If dissolution occurred after the addition of the first aliquot, values were reported as “>”.

[4] = Target RH 5.0%, listed as Lot II
[5] = Target RH 15.0%, listed as Lot II
[6] = Target RH 25.0%, listed as Lot II
[7] = Target RH 35.0%, listed as Lot II
[8] = Target RH 45.0%, listed as Lot II
[9] = Target RH 55.0%, listed as Lot II
[10] = Target RH 65.0%, listed as Lot II
[11] = Target RH 75.0%, listed as Lot II
[12] = Target RH 85.0%, listed as Lot II
[13] = Target RH 95.0%, listed as Lot II
[14] = desorption from 95% to 5% RH, listed as Lot II
[15] = sorption from 5% to 95% RH, listed as Lot II

CC(=O)Nc1cc(Oc2cnc3nc(Nc4cc(C(F)(F)F)cn(C)c4=O)n(C)c3c2C#N)ccn1 [Compound 1 Form B, N-(4-((7-cyano-1-methyl-2-((1-methyl-2-oxo-5-(trifluoromethyl)-1,2-dihydropyridin-3-yl)amino)-1H-imidazo[4,5-b]pyridin-6-yl)oxy)pyridin-2-yl)acetamide]
RH at which Form A became the primary phase ([1]; Experiment 2, RH incrementally increased from 15%, starting from Form B): approximately 60 % RH
RH below which the form likely exists ([1]; VRH-XRPD and DVS data combined): below 20 % RH
RH up to which the form may be kinetically stable ([1]; VRH-XRPD and DVS data combined): 40-60 % RH

CC(=O)Nc1cc(Oc2cnc3nc(Nc4cc(C(F)(F)F)cn(C)c4=O)n(C)c3c2C#N)ccn1 [Compound 1 Lot II, N-(4-((7-cyano-1-methyl-2-((1-methyl-2-oxo-5-(trifluoromethyl)-1,2-dihydropyridin-3-yl)amino)-1H-imidazo[4,5-b]pyridin-6-yl)oxy)pyridin-2-yl)acetamide]
Desorp Mass Change (%) [2, 4]: −0.019%
Sorp Mass Change (%) [2, 4]: 0.000%
Desorp Mass Change (%) [2, 5]: 0.332%
Sorp Mass Change (%) [2, 5]: 0.152%
Hysteresis [2, 5]: 0.180
Desorp Mass Change (%) [2, 6]: 5.623%
Sorp Mass Change (%) [2, 6]: 0.250%
Hysteresis [2, 6]: 5.373
Desorp Mass Change (%) [2, 7]: 6.984%
Sorp Mass Change (%) [2, 7]: 1.468%
Hysteresis [2, 7]: 5.516
Desorp Mass Change (%) [2, 8]: 7.374%
Sorp Mass Change (%) [2, 8]: 4.861%
Hysteresis [2, 8]: 2.513
Desorp Mass Change (%) [2, 9]: 7.842%
Sorp Mass Change (%) [2, 9]: 6.99%
Hysteresis [2, 9]: 0.848
Desorp Mass Change (%) [2, 10]: 8.505%
Sorp Mass Change (%) [2, 10]: 7.697%
Hysteresis [2, 10]: 0.808
Desorp Mass Change (%) [2, 11]: 8.972%
Sorp Mass Change (%) [2, 11]: 8.454%
Hysteresis [2, 11]: 0.518
Desorp Mass Change (%) [2, 12]: 9.206%
Sorp Mass Change (%) [2, 12]: 9.042%
Hysteresis [2, 12]: 0.164
Desorp Mass Change (%) [2, 13]: 9.408%
Sorp Mass Change (%) [2, 13]: 9.408%
DVS weight loss upon desorption [2, 14]: 9.4%
DVS weight loss upon desorption as water [2, 14]: approximately 2.9 mol/mol H2O
post-DVS XRPD ([2]; solid recovered after DVS cycle, listed as Lot II): mostly Form B with some peaks attributed to Form O present
DVS weight gain [2, 15]: 9.4%
DVS weight gain as water uptake [2, 15]: approximately 2.9 mol/mol H2O
DVS weight gain ([2]; sorption from 25% to 55% RH): 6.7%
DVS weight gain as water uptake ([2]; sorption from 25% to 55% RH): ~2.0 mol/mol H2O
DVS hysteresis observation ([2]; sorption/desorption 5-95% RH, listed as Lot II): Hysteresis was observed
solubility ([3]; 5:95 HFIPA/H2O (v/v), aqueous with cosolvent or surfactant or cyclodextrin, 5:95 HFIPA/H2O (v/v), ambient temperature, read-out: Solubility (mg/mL)): < 1 mg/mL
solubility ([3]; 50:50 DMA/H2O (v/v), aqueous with cosolvent or surfactant or cyclodextrin, 50:50 DMA/H2O (v/v), ambient temperature, read-out: Solubility (mg/mL)): < 1 mg/mL
solubility ([3]; 50:50 MeOH/CHCl3 (v/v), organic solvent or mixture, 50:50 MeOH/CHCl3 (v/v), ambient temperature, read-out: Solubility (mg/mL)): 5 to 20 mg/mL (≈ 10 to 40.1 mM)
solubility ([3]; 50:50 MeOH/DCM (v/v), organic solvent or mixture, 50:50 MeOH/DCM (v/v), ambient temperature, read-out: Solubility (mg/mL)): 5 to 20 mg/mL (≈ 10 to 40.1 mM)
solubility ([3]; 50:50 MeOH/H2O (v/v), aqueous with cosolvent or surfactant or cyclodextrin, 50:50 MeOH/H2O (v/v), ambient temperature, read-out: Solubility (mg/mL)): < 1 mg/mL
solubility ([3]; 50:50 TFE/H2O (v/v), aqueous with cosolvent or surfactant or cyclodextrin, 50:50 TFE/H2O (v/v), ambient temperature, read-out: Solubility (mg/mL)): 1 to 4.9 mg/mL (≈ 2.01 to 9.83 mM)
solubility ([3]; 50:50 THF/H2O (v/v), aqueous with cosolvent or surfactant or cyclodextrin, 50:50 THF/H2O (v/v), ambient temperature, read-out: Solubility (mg/mL)): 1 to 4.9 mg/mL (≈ 2.01 to 9.83 mM)
solubility ([3]; 50:50 acetone/water (v/v), aqueous with cosolvent or surfactant or cyclodextrin, 50:50 acetone/water (v/v), ambient temperature, read-out: Solubility (mg/mL)): 1 to 4.9 mg/mL (≈ 2.01 to 9.83 mM)
solubility ([3]; ACN, organic solvent or mixture, ACN, ambient temperature, read-out: Solubility (mg/mL)): < 1 mg/mL
solubility ([3]; AcOH, organic solvent or mixture, AcOH, ambient temperature, read-out: Solubility (mg/mL)): 5 to 20 mg/mL (≈ 10 to 40.1 mM)
solubility ([3]; CHCl3, organic solvent or mixture, CHCl3, ambient temperature, read-out: Solubility (mg/mL)): < 1 mg/mL
solubility ([3]; DCM, organic solvent or mixture, DCM, ambient temperature, read-out: Solubility (mg/mL)): < 1 mg/mL
solubility ([3]; DMA, organic solvent or mixture, DMA, ambient temperature, read-out: Solubility (mg/mL)): 5 to 20 mg/mL (≈ 10 to 40.1 mM)
solubility ([3]; DMF, organic solvent or mixture, DMF, ambient temperature, read-out: Solubility (mg/mL)): 1 to 4.9 mg/mL (≈ 2.01 to 9.83 mM)
solubility ([3]; DMSO, organic solvent or mixture, DMSO, ambient temperature, read-out: Solubility (mg/mL)): 5 to 20 mg/mL (≈ 10 to 40.1 mM)
solubility ([3]; H2O, water, H2O, ambient temperature, read-out: Solubility (mg/mL)): < 1 mg/mL
solubility ([3]; HFIPA, organic solvent or mixture, HFIPA, ambient temperature, read-out: Solubility): 84 mg/mL (≈ 169 mM)
solubility ([3]; HFIPA, organic solvent or mixture, HFIPA, ambient temperature, read-out: Solubility (mg/mL)): 5 to 20 mg/mL (≈ 10 to 40.1 mM)
solubility ([3]; MeOH, organic solvent or mixture, MeOH, ambient temperature, read-out: Solubility (mg/mL)): < 1 mg/mL
solubility ([3]; NMP, organic solvent or mixture, NMP, ambient temperature, read-out: Solubility (mg/mL)): 5 to 20 mg/mL (≈ 10 to 40.1 mM)
solubility ([3]; TFE, organic solvent or mixture, TFE, ambient temperature, read-out: Solubility (mg/mL)): 5 to 20 mg/mL (≈ 10 to 40.1 mM)
solubility ([3]; THF, organic solvent or mixture, THF, ambient temperature, solution almost completely clear after 24 h, read-out: Solubility (mg/mL)): 1 to 4.9 mg/mL (≈ 2.01 to 9.83 mM)
solubility ([3]; THF, organic solvent or mixture, THF, left at ambient temperature overnight, read-out: Solubility): ≥ 1 mg/mL
solubility ([3]; acetone, organic solvent or mixture, Acetone, ambient temperature, read-out: Solubility (mg/mL)): < 1 mg/mL
solubility ([3]; ethylene glycol, organic solvent or mixture, Ethylene glycol, ambient temperature, read-out: Solubility (mg/mL)): < 1 mg/mL
solubility ([3]; organic solvent or mixture, AcOH, DMF, DMSO, 50:50 MeOH/DCM, 50:50 MeOH/CHCl3, NMP, TFE, and 50:50 TFE/H2O, ambient temperature, read-out: Solubility (limited solubility values)): 1 to 20 mg/mL (≈ 2.01 to 40.1 mM)
